Results from paper PMC8365602 (Journal of Medicinal Chemistry, 2021).

How the values were obtained:
[1] = molecular target: single mutant Arg101Asp 5-LOX (R101D) (Homo sapiens, UniProt P09917, R102D); assay: Cell-free activity of 5-LOX single mutant (R101D)
Procedure: (§3) Human recombinant 5-LOX was expressed in E. coli Bl21 (DE3) cells that were transformed with pT3–5LOX (wt 5-LOX), 5-LOX_3W (triple mutation of Trp102Ala/Trp13Ala/Trp75Ala), or 5-LOX_R (single mutant of the Arg101Asp plasmid) and purified on an ATP-agarose column (Econo-Pac, Bio-Rad, Hercules, CA) by affinity chromatography.[6],[75]
(§4) Purified 5-LOX (0.5 μg in PBS pH 7.4 containing 1 mM EDTA and 1 mM ATP) was preincubated with the vehicle (DMSO) or test compounds for 10 min and prewarmed at 37 °C.

[2] = Concentrations and metabolism of compound in mice with zymosan-induced peritonitis; format: in vivo
Procedure: (§1) LCMs, 27a, and 27a metabolites were extracted from PMNL, medium of the liver-on-chip, murine plasma, peritoneal exudate, or homogenized murine tissue as described.[6] In brief, PBS pH 7.4, methanol, chloroform, and saline (final ratio: 14:34:35:17) were successively added together with 13d (9 pmol) as the internal standard. The organic layer was evaporated, and the extracted LCMs were dissolved in methanol.
LCMs, 27a, and 27a metabolites were separated at a flow rate of 0.8 mL/min and a column temperature of 45 °C, with acetonitrile/H2O (10:90) as mobile phase A and acetonitrile as mobile phase B, both acidified with 0.07% formic acid. The linear gradient from A/B = 50:50 to 0:100 within 4.5 min was followed by isocratic elution with A/B = 0:100 for 1 min. MS parameters were adjusted according to Pein et al.[6] and as detailed in Table S3. Signal intensities were normalized to the internal standard 13d, and concentrations were calculated using external calibration curves as specified in Table S3.
Zymosan (2 mg/mL in saline, i.p., 0.5 mL, Sigma-Aldrich) was injected at 30 min (i.p.) or 60 min (p.o.) post compound administration. Mice were sacrificed by inhalation of CO2 after another 30 min to determine LTC4 levels, lipid mediator profiles, metabolites, and vascular permeability and after 4 h to analyze LTB4 levels and cell infiltration.[72] Plasma and peritoneal exudates were collected, and cells were counted in exudates after trypan blue staining. Vascular permeability was measured by injection of Evans blue dye (40 mg/kg in saline, 0.3 mL, Sigma-Aldrich) into the tail vain directly before peritonitis induction.[72] The exudate was centrifuged (3000g, 5 min), and the absorbance was measured at 610 nm (DU730 spectrophotometer, Beckman Coulter, Krefeld, Germany). Levels of LTB4 and cysteinyl-LTs (dominated by LTC4) were quantified in the exudate by ELISA (Enzo Life Sciences, Lörrach, Germany) according to the manufacturer’s instructions. Compound 27a, its metabolites, and lipid mediators were extracted and analyzed by UPLC-MS/MS.

[3] = Concentrations of compound in plasma and lung in the asthma model; format: in vivo, mice; details: 10 mg/kg p.o. on days 0 and 7
Procedure: as §1
LCMs, 27a, and 27a metabolites were separated at a flow rate of 0.8 mL/min and a column temperature of 45 °C, with acetonitrile/H2O (10:90) as mobile phase A and acetonitrile as mobile phase B, both acidified with 0.07% formic acid. […] Signal intensities were normalized to the internal standard 13d, and concentrations were calculated using external calibration curves as specified in Table S3.
BALB/c mice received 27a (p.o.) or vehicle (0.5% carboxymethylcellulose in 10% Tween 20; 0.5 mL) on days 0 and 7, 1 h (p.o) before being sensitized to ovalbumin (100 μg adsorbed to 3.3 mg of aluminum hydroxide gel, s.c., Sigma-Aldrich). […] To assess bronchial reactivity, the cumulative response to carbachol (0.001 to 3.16 μM) was measured. Bronchial relaxation was determined from the cumulative response of precontracted bronchial tissues to salbutamol. Compound 27a, LTB4, and LTB4 isomers were analyzed in plasma and lung homogenates by UPLC-MS/MS. […]

12-LOX = molecular target: T1, 12-LOX (Homo sapiens, UniProt P18054); assay: 12-LOX product formation in activated PMNL; format: cell-based
T1 construct: endogenous in cells; host or cells: primary human PMNL
Procedure: (§5) Freshly isolated PMNL (5 × 10^6) suspended in PBS pH 7.4 with 1 mg/mL glucose or freshly withdrawn human whole blood were preincubated with the test compounds for 10 min (or as indicated) at 37 °C. […] The reaction was stopped with an equal volume of methanol.

PBMC = PBMC viability (MTT, mitochondrial dehydrogenase activity); format: cell-based, human; details: ≤1 μM, 24 h
Procedure: To measure mitochondrial dehydrogenase activity, 3-(4,5-dimethylthiazol-2-yl)-2,5-diphenyltetrazolium bromide (MTT) (20 μL, 5 mg/mL, Sigma-Aldrich) was added to PBMC. After 4 h in the darkness, the formed formazan product was solubilized (10% SDS in 20 mM HCl) and the absorbance was read at 570 nm using a Multiskan Spectrum microplate reader (Thermo Fisher Scientific).[81]

15-LOX = 15-LOX product formation in activated PMNL; format: cell-based, human
Procedure: as §5

[4] = Hepatic metabolism in human liver-on-chip; format: in vitro ADME; details: 1 μM, 48 h
Procedure: as §1
LCMs, 27a, and 27a metabolites were separated at a flow rate of 0.8 mL/min and a column temperature of 45 °C, with acetonitrile/H2O (10:90) as mobile phase A and acetonitrile as mobile phase B, both acidified with 0.07% formic acid. The linear gradient from A/B = 50:50 to 0:100 within 4.5 min was followed by isocratic elution with A/B = 0:100 for 1 min. MS parameters were adjusted according to Pein et al.[6] and as detailed in Table S3. Signal intensities were normalized to the internal standard 13d, and concentrations were calculated using external calibration curves as specified in Table S3. […]
The medium between the two membranes was renewed, and the vehicle (DMSO), 12a, or 27a were added. […] 12a, 27a, and their metabolites were extracted from the combined fractions and analyzed by UPLC-MS/MS.[6]

human recombinant COX-2 = molecular target: T2, human recombinant COX-2 (Homo sapiens, UniProt P35354); assay: COX-2 activity; format: biochemical
T2 construct: purchased Cayman Chemicals
Procedure: (§2) Purified ovine COX-1 (Cayman Chemicals; 50 units) or human recombinant COX-2 (Cayman Chemicals; 20 units) was dissolved in 100 mM Tris buffer pH 8, 5 mM glutathione, 5 μM hemoglobin, and 100 μM EDTA. COX isoenzymes were preincubated with the vehicle (DMSO) or 27a for 5 min at 4 °C and 1 min at 37 °C. Addition of arachidonic acid (COX-1: 5 μM; COX-2: 2 μM) initiated the formation of COX-derived 12(S)-hydroxy-5-cis-8,10-trans-heptadecatrienoic acid (12-HHT), which was extracted and analyzed by RP-HPLC according to 5-LOX products.

[5] = molecular target: triple mutant Trp13Ala, Trp75Ala, and Trp102Ala 5-LOX (3W) (Homo sapiens, UniProt P09917, W103A/W14A/W76A); assay: Cell-free activity of 5-LOX triple mutant (3W)
Procedure: as §3, §4

ovine COX-1 = molecular target: T3, ovine COX-1 (Ovis aries, UniProt P05979); assay: Isolated COX-1 activity; format: biochemical
T3 construct: purchased Cayman Chemicals
Procedure: as §2

Sequence of triple mutant Trp13Ala, Trp75Ala, and Trp102Ala 5-LOX (3W) (P09917 whole entry W14A/W76A/W103A): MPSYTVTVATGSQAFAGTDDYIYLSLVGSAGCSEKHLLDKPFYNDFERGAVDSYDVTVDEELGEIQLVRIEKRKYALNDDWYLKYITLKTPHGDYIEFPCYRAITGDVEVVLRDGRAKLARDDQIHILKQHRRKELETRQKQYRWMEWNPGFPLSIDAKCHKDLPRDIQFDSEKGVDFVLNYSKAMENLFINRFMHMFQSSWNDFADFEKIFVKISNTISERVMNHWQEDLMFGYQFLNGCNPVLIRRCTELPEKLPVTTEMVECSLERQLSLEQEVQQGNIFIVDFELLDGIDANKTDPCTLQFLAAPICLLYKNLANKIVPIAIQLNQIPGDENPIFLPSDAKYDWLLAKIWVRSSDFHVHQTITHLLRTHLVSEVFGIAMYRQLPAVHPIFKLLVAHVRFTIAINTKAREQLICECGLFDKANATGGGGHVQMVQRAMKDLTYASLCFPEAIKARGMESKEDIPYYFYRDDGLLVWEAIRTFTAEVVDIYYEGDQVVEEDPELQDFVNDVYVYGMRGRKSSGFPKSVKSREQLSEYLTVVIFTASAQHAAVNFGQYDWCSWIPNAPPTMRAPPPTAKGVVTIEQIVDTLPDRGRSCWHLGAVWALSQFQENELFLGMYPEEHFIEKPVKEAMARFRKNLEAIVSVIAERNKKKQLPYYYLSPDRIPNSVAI
T3 sequence (P05979 25-600): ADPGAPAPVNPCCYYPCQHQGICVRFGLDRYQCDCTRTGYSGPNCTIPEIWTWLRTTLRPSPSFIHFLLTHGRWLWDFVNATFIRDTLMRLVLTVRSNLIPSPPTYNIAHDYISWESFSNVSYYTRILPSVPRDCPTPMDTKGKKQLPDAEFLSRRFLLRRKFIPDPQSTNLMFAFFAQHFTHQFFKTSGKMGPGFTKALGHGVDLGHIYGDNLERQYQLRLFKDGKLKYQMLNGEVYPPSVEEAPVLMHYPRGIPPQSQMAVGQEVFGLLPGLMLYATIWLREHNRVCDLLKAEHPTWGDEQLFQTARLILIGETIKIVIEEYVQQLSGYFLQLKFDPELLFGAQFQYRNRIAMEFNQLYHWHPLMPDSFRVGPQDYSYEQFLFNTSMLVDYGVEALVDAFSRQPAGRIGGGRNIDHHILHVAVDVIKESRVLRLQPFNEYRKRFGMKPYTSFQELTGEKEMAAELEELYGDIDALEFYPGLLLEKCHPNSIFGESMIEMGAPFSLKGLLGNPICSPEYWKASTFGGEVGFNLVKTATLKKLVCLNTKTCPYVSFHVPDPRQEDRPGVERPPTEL
Sequence of single mutant Arg101Asp 5-LOX (R101D) (P09917 whole entry R102D): as the sequence (P09917 whole entry W14A/W76A/W103A) above, with A14W, A76W, R102D, A103W counted along it
T2 sequence (P35354 18-604): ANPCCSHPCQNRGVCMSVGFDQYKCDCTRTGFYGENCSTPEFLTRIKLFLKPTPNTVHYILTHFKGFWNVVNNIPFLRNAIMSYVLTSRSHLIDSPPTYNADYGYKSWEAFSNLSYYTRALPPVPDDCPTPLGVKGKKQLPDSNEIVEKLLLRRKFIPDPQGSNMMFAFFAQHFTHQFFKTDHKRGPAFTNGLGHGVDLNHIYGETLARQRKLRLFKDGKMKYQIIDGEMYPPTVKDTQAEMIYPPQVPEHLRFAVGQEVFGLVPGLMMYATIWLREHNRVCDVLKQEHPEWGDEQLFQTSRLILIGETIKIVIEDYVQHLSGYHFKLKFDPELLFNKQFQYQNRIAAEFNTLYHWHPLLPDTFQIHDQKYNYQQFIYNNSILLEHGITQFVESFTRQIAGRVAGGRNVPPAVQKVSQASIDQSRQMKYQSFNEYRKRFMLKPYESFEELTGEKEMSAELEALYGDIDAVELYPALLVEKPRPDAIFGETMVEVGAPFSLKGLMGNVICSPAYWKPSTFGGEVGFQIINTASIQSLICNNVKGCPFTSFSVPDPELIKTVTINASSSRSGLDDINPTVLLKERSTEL
T1 sequence (P18054 whole entry): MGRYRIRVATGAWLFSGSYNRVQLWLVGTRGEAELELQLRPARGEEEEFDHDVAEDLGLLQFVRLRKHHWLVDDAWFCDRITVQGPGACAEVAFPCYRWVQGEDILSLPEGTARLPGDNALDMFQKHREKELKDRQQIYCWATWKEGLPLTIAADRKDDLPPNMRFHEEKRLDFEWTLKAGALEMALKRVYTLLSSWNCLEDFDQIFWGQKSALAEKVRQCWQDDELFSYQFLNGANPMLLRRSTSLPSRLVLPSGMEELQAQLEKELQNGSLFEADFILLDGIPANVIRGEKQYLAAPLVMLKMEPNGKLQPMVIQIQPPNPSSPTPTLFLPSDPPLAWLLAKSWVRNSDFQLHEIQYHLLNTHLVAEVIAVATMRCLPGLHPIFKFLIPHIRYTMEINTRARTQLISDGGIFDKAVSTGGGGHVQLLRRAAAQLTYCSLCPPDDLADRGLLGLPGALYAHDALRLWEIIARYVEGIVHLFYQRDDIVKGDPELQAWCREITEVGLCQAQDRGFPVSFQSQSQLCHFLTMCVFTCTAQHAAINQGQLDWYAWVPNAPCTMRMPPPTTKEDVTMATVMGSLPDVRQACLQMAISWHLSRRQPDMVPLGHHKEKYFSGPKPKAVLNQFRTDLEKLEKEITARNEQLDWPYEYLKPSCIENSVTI

C/C(=C\CC/C(C)=C/CC[C@]1(C)CCc2c(C)c(O)c(C)c(C)c2O1)CCC=C(CO)CO [Compound 27a, α-amplexichromanol]
Effect of Arg101Asp replacement on 5-LOX inhibition [1]: failed to affect 5-LOX inhibition | concentration at 90 min ([2]; CD-1, mouse, plasma, po, mice with acute peritonitis, 10 mg/kg p.o., 90 min post administration): 30 to 900 nM | Side-chain degradation in mice ([2]; mice, 10 mg/kg p.o., plasma): resistant to degradation | Time to uptake after oral administration ([2]; mice, p.o.): ≤ 1 h | Concentrations in the peritoneal exudate ([2]; mice, peritonitis, oral administration 30 mg/kg): 0.5 to 4 nM | Time course of systemic concentrations in plasma and lung [3]: peaked at the days after administration (days 1 and 8) and then rapidly declined | 12-LOX inhibition (12-LOX): not substantially inhibited | Mitochondrial dehydrogenase activity in PBMC (cell viability) (PBMC): impaired neither mitochondrial dehydrogenase activity | 15-LOX inhibition (15-LOX; activated human PMNL): not substantially inhibited | 15-LOX product formation (15-LOX; submicromolar concentrations): increased by a trend | Hepatic metabolism [4]: preferentially conjugated with sulfate or oxidized at 12a′ or 13′ to the respective ω-carboxylic acid | COX-2 inhibition (human recombinant COX-2): not substantially inhibited | Effect of Trp102Ala/Trp13Ala/Trp75Ala triple mutation on 5-LOX inhibition [5]: failed to affect 5-LOX inhibition | COX-1 inhibition (isolated ovine enzyme) (ovine COX-1): not substantially inhibited
